Series [1] deals with root-knot nematode (Meloidogyne incognita). In words: Initial Root-Knot Nematicidal Activity. The format is in vivo. Particulars: 336 h, read-out: Percent Control; for pest or weed control at 0.313 ppm: Table 2, Application Rate 0.313 ppm; for pest or weed control at 0.625 ppm: Table 2, Application Rate 0.625 ppm; for pest or weed control at 1.25 ppm: Table 2, Application Rate 1.25 ppm; for pest or weed control at 0.312 ppm: Table 2, Application Rate 0.312 ppm. As for the experimental part: (§1) Compounds of this invention were tested as follows for nematicidal and anthelmintic activity as dust formulations (initial and residual activity) and as acetone/water formulations (systemic activity). The formulations are described above.
The activity against root-knot nematode (Meloidogyne incognita) was determined by incorporating the compound of the invention in nematode infested soil at rates in the range of 10 ppm to 0.078 ppm of compound. Several tomato or cucumber seedlings were planted in the nematode infested soil. Two weeks after planting the test pots were evaluated to ascertain the degree of galling (swelling) on the roots of the plants, indicating the control provided by the test chemical.
The results expressed as precent control (determined by knot index) are set forth as averages in Table 2 (appended). Knot index is a numerical designation assigned at evaluation, having the following meanings:
Percent control is related to knot index as follows:
When the Knot Index is between 0 and 1 it is further subdivided as follows to indicate how close the percent control is to 75% or 100%: […]

Series [2] deals with Caenorhabditis elegans. In words: C. Elegans Nematode Screening Test and Evaluation (in-vitro). Particulars: for inhibition at 5 ppm / mortality at 5 ppm / inhibition at 1.25 ppm / mortality at 1.25 ppm / inhibition at 2.5 ppm / mortality at 2.5 ppm: Caenorhabditis elegans; for inhibition at 5 ppm / inhibition at 1.25 ppm / inhibition at 2.5 ppm: read-out: Percent Inhibition of Reproduction; for mortality at 5 ppm / mortality at 1.25 ppm / mortality at 2.5 ppm: read-out: Percent Mortality. As for the experimental part:
This in-vitro test using the free-living nematode Caenorhabditis elegans, is a modification of the assay developed by Simpkin and Coles, J. Chem. Tech. […] One milliliter of a test medium consisting of 5 mg ampicillin, 10,000 units of mycostatin and 10 ml of a dense suspension of Escherichia coli per 100 ml of a buffer solution, was pipetted into each well of a 24-well microtiter plate. The candidate nematicide, suspended at the appropriate concentration in dimethylsulfoxide, was added to the wells in […] volumes. Each rate of application was replicated two to three times. After thorough mixing of the contents of each well, 50 to 100 μl of a nematode suspension in a buffer was added so that each well received 10-15 nematodes. After the nematodes were added, the microtiter plates were incubated at 20° C. for 5-6 days.
The effect of the candidate nematicide on the survival and the reproduction of C. elegans was then evaluated by comparison of the level of population developed in the treated wells with that in untreated wells. Specific effects on population development, such as reduced egg hatch or molting disruption, were noted if they were evident.

Series [3] relates to root-knot nematode. In words: Soil Mobility against root-knot nematode. The format is in vivo, Meloidogyne incognita. Particulars: 336 h, Table 7a, 5% dust, 5 ppm, read-out: Percent Control. Here is the method:
as §1
The ability of nematicidal compounds of the invention to move through nematode-infested soil […] infested soil, and subsequently eluting the soil with 15 cm of water (equivalent to 15 cm of rainfall) into a series of two or more pots of untreated, but nematode-infested, soil. Specifically, the pots were 8 cm diameter plastic pots containing a 10 cm^3 layer of sand over a coarse grade filter paper disc. Sufficient soil was placed over the sand to fill the pots, and a second filter paper disc was placed over the soil. Each test compound-treated pot was nested over a series of two or more pots containing untreated, but nematode-infested soil, also containing sand filter paper discs as described for the treated soil pots. Fifteen cm of water was slowly dripped into the top pots and the pots were allowed to drain for 16-18 hours to remove excess water. The top filter of each pot was then removed and the pots were planted with a cucumber or tomato seedling. […] "Knot Index" and "Percent Control" are as defined in the initial root-knot nematode tests above.

Setting [4] is: Table 2, Application Rate 2.5 ppm.
Where [5] appears, read: Table 2, Application Rate 5.0 ppm.
Setting [6] is: Table 2, Application Rate 10.0 ppm.

One may read the inhibition as the drop in the measured response relative to a control, in per cent. As a reminder, the mortality is the share of the test organisms that died.

The structures appear in SMILES notation. Like-named read-outs stand apart in the source and are kept apart here.

Turning to `O=C(OCCC(F)=C(F)F)C(F)(F)C(F)(F)C(F)(F)F` [Compound 3, (3,4,4-trifluoro-3-butenyl) heptafluorobutyrate], in series [1], the pest or weed control at 2.5 ppm turned out to be 71%, the pest or weed control at 5 ppm worked out at 83% and the pest or weed control at 10 ppm was 95%.

For `O=C(OCCC(F)=C(F)F)c1ccc(Cl)cc1` [Compound 4, (3,4,4-trifluoro-3-butenyl) 4-chlorobenzoate], in series [1], the pest or weed control at 0.313 ppm was 38%, the pest or weed control at 0.625 ppm was 44% and the pest or weed control at 1.25 ppm is 56%. In addition, the pest or weed control at 2.5 ppm in series [1] (setting [4]) is 99%.

For the molecule `O=C1CCC(=O)N1CCC(F)=C(F)F` [Compound 5, N-(3,4,4-trifluoro-3-butenyl)succinimide], in series [1], the pest or weed control at 0.313 ppm is 0%, the pest or weed control at 0.625 ppm amounted to 6% and the pest or weed control at 1.25 ppm stood at 70%. In addition, the pest or weed control at 2.5 ppm in series [1] (setting [4]) turned out to be 81%.

As for `OCCCC(F)=C(F)F` [Compound 7, 4,5,5-trifluoro-4-penten-1-ol], the pest or weed control at 2.5 ppm in series [1] (setting [4]) was found to be 25%. Also, the pest or weed control at 5 ppm in series [1] (setting [5]) was determined as 44%. Besides, in series [1] (setting [6]), the pest or weed control at 10 ppm was determined as 79%.

Turning to `FC(F)=C(F)CCSCc1cc2ccccc2s1` [Compound 11, 2-(3,4,4-trifluoro-3-butenylthiomethyl)-thianaphthene], in series [1], the pest or weed control at 0.625 ppm was 0% and the pest or weed control at 1.25 ppm worked out at 67%. The pest or weed control at 2.5 ppm in series [1] (setting [4]) came to 78%. For the same molecule, the pest or weed control at 5 ppm in series [1] (setting [5]) came out at 83%.

Take `C#CCSc1nnc(SCCC(F)=C(F)F)s1` [Compound 14, 2-propargylthio-5-(3,4,4-trifluoro-3-butenylthio)-1,3,4-thiadiazole]: in series [1], the pest or weed control at 0.313 ppm is 0%, the pest or weed control at 0.625 ppm came to 0% and the pest or weed control at 1.25 ppm is 25%. For the same molecule, the pest or weed control at 2.5 ppm in series [1] (setting [4]) is 83%.

Turning to `O=C(OCCC(F)=C(F)F)C(F)(F)C(F)(F)F` [Compound 19, (3,4,4-trifluoro-3-butenyl) pentafluoropropionate, mono diethyl etherate], the pest or weed control at 2.5 ppm in series [1] (setting [4]) came out at 58%. The pest or weed control at 5 ppm in series [1] (setting [5]) amounted to 75%. In addition, the pest or weed control at 10 ppm in series [1] (setting [6]) was determined as 69%.

Turning to `O=C(OCCC(F)=C(F)F)c1cccs1` [Compound 20], in series [1], the pest or weed control at 0.313 ppm was determined as 0%, the pest or weed control at 0.625 ppm was 6% and the pest or weed control at 1.25 ppm came to 63%. Further, the pest or weed control at 2.5 ppm in series [1] (setting [4]) stood at 98%.

Take `O=C(OCCC(F)=C(F)F)c1ccc[nH]1` [Compound 22, (3,4,4-trifluoro-3-butenyl) 2-pyrrolecarboxylate]: in series [1], the pest or weed control at 0.313 ppm was found to be 0%, the pest or weed control at 0.625 ppm was found to be 0% and the pest or weed control at 1.25 ppm stood at 44%. The pest or weed control at 2.5 ppm in series [1] (setting [4]) turned out to be 96%.

`O=C(CSC1=NCCS1)OCCC(F)=C(F)F` [Compound 23, (3,4,4-trifluoro-3-butenyl) [2-(4,5-dihydrothiazolyl)thio]acetate]: the pest or weed control at 2.5 ppm in series [1] (setting [4]) worked out at 76%. In addition, the pest or weed control at 5 ppm in series [1] (setting [5]) was 84%. Moreover, the pest or weed control at 10 ppm in series [1] (setting [6]) was found to be 96%.

As to `O=C1c2ccccc2S(=O)(=O)N1CCC(F)=C(F)F` [Compound 24, N-(3,4,4-trifluoro-3-butenyl)saccharine], the pest or weed control at 2.5 ppm in series [1] (setting [4]) is 19%. For the same molecule, in series [1] (setting [5]), the pest or weed control at 5 ppm was determined as 63%. Also, the pest or weed control at 10 ppm in series [1] (setting [6]) was 78%.

For the molecule `O=[N+]([O-])c1ccc(CSc2nsc(SCCC(F)=C(F)F)n2)cc1` [Compound 26, 3-(4-nitrophenylmethylthio)-5-(3,4,4-trifluoro-3-butenylthio)-1,2,4-thiadiazole], in series [2] (Table 9 screen, 5 ppm), the inhibition at 5 ppm amounted to 100% and the mortality at 5 ppm is 100%. For the same molecule, the mortality at 5 ppm in series [2] (Table 10 evaluation, 5 ppm) is 100%. In addition, in series [2] (Table 10 evaluation, 1.25 ppm), the inhibition at 1.25 ppm amounted to 100% and the mortality at 1.25 ppm was 100%. Also, in series [2] (Table 10 evaluation, 2.5 ppm), the inhibition at 2.5 ppm came to 100% and the mortality at 2.5 ppm stood at 100%. Besides, in series [1], the pest or weed control at 0.312 ppm was 0%, the pest or weed control at 0.625 ppm came to 0% and the pest or weed control at 1.25 ppm came to 63%. Also, in series [1] (setting [4]), the pest or weed control at 2.5 ppm turned out to be 86%.

With `FC(F)=C(F)CCSc1nnc(-c2ccc(Cl)cc2)s1` [Compound 37, 2-(4-chlorophenyl)-5-(3,4,4-trifluoro-3-butenylthio)-1,3,4-thiadiazole], in series [2] (Table 9 screen, 5 ppm), the inhibition at 5 ppm is 100% and the mortality at 5 ppm worked out at 100%. Besides, the mortality at 5 ppm in series [2] (Table 10 evaluation, 5 ppm) came to 100%. In series [2] (Table 10 evaluation, 1.25 ppm), the inhibition at 1.25 ppm was 100% and the mortality at 1.25 ppm was determined as 100%. In series [2] (Table 10 evaluation, 2.5 ppm), the inhibition at 2.5 ppm is 100% and the mortality at 2.5 ppm is 100%. The pest or weed control at 0.078 ppm in series [1] (Table 2, Application Rate 0.078 ppm) came to 0%. The pest or weed control at 0.156 ppm in series [1] (Table 2, Application Rate 0.156 ppm) stood at 0%. Also, in series [1], the pest or weed control at 0.312 ppm turned out to be 0% and the pest or weed control at 0.625 ppm amounted to 0%.

As for `FC(F)=C(F)CCSc1nc(Cc2ccc(F)cc2)no1` [Compound 38, 3-(4-fluorophenylmethyl)-5-(3,4,4-trifluoro-3-butenylthio)-1,2,4-oxadiazole], in series [1], the pest or weed control at 0.312 ppm is 63%, the pest or weed control at 0.625 ppm turned out to be 76% and the pest or weed control at 1.25 ppm turned out to be 96%. Also, in series [1] (setting [4]), the pest or weed control at 2.5 ppm came out at 98%. The pest or weed control at 5 ppm in series [3] (BOTTOM container) is 0%. Also, in series [3] (MIDDLE container), the pest or weed control at 5 ppm was 0%. Moreover, the pest or weed control at 5 ppm in series [3] (TOP container) came to 0%.

With `FC(F)=C(F)CCSc1nc(-c2ccc(Cl)cc2)no1` [Compound 39, 3-(4-chlorophenyl)-5-(3,4,4-trifluoro-3-butenylthio)-1,2,4-oxadiazole], in series [2] (Table 9 screen, 5 ppm), the inhibition at 5 ppm was 100% and the mortality at 5 ppm was 100%. In addition, in series [2] (Table 10 evaluation, 5 ppm), the mortality at 5 ppm is 100% and the “Percent Mortality” value stood at 100%. In addition, in series [2] (Table 10 evaluation, 1.25 ppm), the inhibition at 1.25 ppm was determined as 100%, the mortality at 1.25 ppm is 67% and the “Percent Mortality” value was 58%. For the same molecule, in series [2] (Table 10 evaluation, 2.5 ppm), the inhibition at 2.5 ppm was determined as 100%, the mortality at 2.5 ppm amounted to 100% and the “Percent Mortality” value was 100%. Besides, in series [1], the pest or weed control at 0.312 ppm turned out to be 19%, the pest or weed control at 0.625 ppm worked out at 84% and the pest or weed control at 1.25 ppm was found to be 98%. Further, in series [1] (setting [4]), the pest or weed control at 2.5 ppm is 100%.

As for `O=[N+]([O-])c1ccc(-c2noc(SCCC(F)=C(F)F)n2)cc1` [Compound 40, 3-(4-nitrophenyl)-5-(3,4,4-trifluoro-3-butenylthio)-1,2,4-oxadiazole], in series [2] (Table 10 evaluation, 5 ppm), the inhibition at 5 ppm was found to be 100% and the mortality at 5 ppm came out at 100%. In addition, in series [2] (Table 10 evaluation, 1.25 ppm), the inhibition at 1.25 ppm amounted to 100% and the mortality at 1.25 ppm turned out to be 100%. In series [2] (Table 10 evaluation, 2.5 ppm), the inhibition at 2.5 ppm is 100% and the mortality at 2.5 ppm worked out at 100%. Further, in series [1], the pest or weed control at 0.312 ppm amounted to 0%, the pest or weed control at 0.625 ppm turned out to be 56% and the pest or weed control at 1.25 ppm turned out to be 84%. The pest or weed control at 2.5 ppm in series [1] (setting [4]) worked out at 99%.
